Assay results reported in US7713994B2 (Wyeth LLC, priority 2005, dated 2010).
Like-named read-outs stand apart in the source and are kept apart here.

What was measured:
MCF-7 = assay: Cytotoxicity assay (SRB), MCF-7; format: cell-based; conditions: MCF-7 cells, SRB, read-out: In Vitro Cellular Activity IC50 MCF-7
Procedure, shortened: (§1)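 Plate cells, let them attach overnight, add compound dilutions in RPMI 1640/5% FBS, and incubate 3 days (BT474 6 days). Then fix with TCA, stain with SRB, dissolve the dye in Tris and read at 540 nm.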

BT474 = assay: Cytotoxicity assay (SRB), BT474; format: cell-based
Procedure, shortened: as §1

LoVo = assay: Cytotoxicity assay (SRB), LoVo; format: cell-based; conditions: LoVo cells, SRB, read-out: In Vitro Cellular Activity IC50 LOVO
Procedure, shortened: as §1

cyclin B/CDK1 enzyme = molecular target: T1, cyclin B/CDK1 enzyme (Homo sapiens, UniProt P06493); assay: CDK1 ELISA kinase assay (phospho-Rb ser 795 detection); format: biochemical
T1 construct: purchased New England BioLabs; host or cells: Sf9 insect cells, recombinant baculovirus
T1 sequence (P06493 whole entry): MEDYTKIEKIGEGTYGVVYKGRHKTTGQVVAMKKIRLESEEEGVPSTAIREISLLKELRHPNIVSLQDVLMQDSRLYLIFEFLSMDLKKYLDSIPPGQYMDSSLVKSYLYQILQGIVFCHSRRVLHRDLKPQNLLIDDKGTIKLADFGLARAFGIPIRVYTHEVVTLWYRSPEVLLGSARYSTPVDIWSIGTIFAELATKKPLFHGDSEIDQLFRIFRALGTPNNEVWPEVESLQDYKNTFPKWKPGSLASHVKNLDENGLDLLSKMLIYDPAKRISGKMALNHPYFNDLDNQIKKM
T1 sequence (P14635 whole entry partner): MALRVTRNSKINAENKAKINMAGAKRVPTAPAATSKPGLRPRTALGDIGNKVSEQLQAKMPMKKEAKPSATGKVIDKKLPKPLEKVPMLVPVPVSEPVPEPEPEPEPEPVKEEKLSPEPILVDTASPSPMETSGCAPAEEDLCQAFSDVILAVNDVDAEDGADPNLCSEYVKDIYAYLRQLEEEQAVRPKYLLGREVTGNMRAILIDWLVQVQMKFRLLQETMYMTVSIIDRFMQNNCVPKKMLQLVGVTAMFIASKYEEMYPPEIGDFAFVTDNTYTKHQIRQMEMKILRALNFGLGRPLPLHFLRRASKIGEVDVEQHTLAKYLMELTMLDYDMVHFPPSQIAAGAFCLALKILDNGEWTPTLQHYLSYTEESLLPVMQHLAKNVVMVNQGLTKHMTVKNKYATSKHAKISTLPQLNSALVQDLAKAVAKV
Method: (§2) • 1. High-binding ELISA microtiter plates (Costar) were coated with 40 μl of the kinase substrate (GST fusion of C-terminal fragment of the retinoblastoma susceptibility gene product) diluted to 10 μg/ml in tris-buffered saline (TBS), overnight at 4° C. • 2. Non-specific binding sites were blocked for 1 hour at 4° C. with Superblock in TBS (Pierce), and the plates rinsed with water. • 3. For the screen, 1.5 μl of test compound (200 μg/ml stock in 20% DMSO/20 mM HEPES, pH 7.5) was added to each well. Final dose of the test compound in the assay was 10 ug/ml. […] The kinase reaction (30 μl) was dispensed into each well. Reactions contained 200 μM ATP, 0.5 mg/ml bovine serum albumin (BSA; Sigma), and 0.5 μl partially purified cyclin D1/cdk 4 enzyme*. The enzyme complex is expressed in insect cells (Sf9) infected with recombinant baculovirus and partially purified using ammonium sulfate fractionation. Reaction volumes were adjusted to 30 μl with kinase assay buffer (50 mM HEPES, pH 7.5, 10 mM MgCl2, 5% glycerol, 10 mM 2-mercaptoethanol). • *: For CDK2 assay, 1.0 μl cyclin E/CDK2 enzyme (diluted 1:1000 in kinase assay buffer) was used. The enzyme is isolated from insect cells (Sf9) infected with recombinant baculovirus and partially purified using ammonium sulfate fractionation. For CDK1 assay, 0.08 μl cyclin B/CDK1 enzyme [New England BioLabs; the enzyme is isolated from insect cells (Sf9) infected with recombinant baculovirus carrying human cdc 2 and human cyclin B] was used.
(§3) […] • 5. Plates were incubated at 30° C. for 1 hour. • 6. The reaction mixture was removed by aspiration and replaced with 250 μl TBS containing 0.1% Tween-20 and 5% nonfat dry milk (blocking buffer). The plates were incubated at 4° C. for 1 hour. • 7. The blocking buffer was removed and replaced with 50 μl of the primary antibody [anti-phospho-Rb ser 795 (New England BioLabs) diluted 1:1000 in blocking buffer]. Incubation was at 4° C. for 16-20 hours. • 8. The wells were rinsed 3 times with 250 μl of TBS containing 0.1% Tween-20 followed by the addition of 50 μl of secondary antibody [anti-rabbit IgG conjugated to horseradish peroxidase (Amersham Life Science) diluted 1:1000 in blocking buffer]. • 9. After a 1 hour incubation at room temperature, the wells were rinsed 3 times with 250 μl of TBS/0.1% Tween 20. • 10. TMB (3,3′,5,5′-tetramethylbenzidine dihydrochloride) substrate solution (100 μl; Pierce) was added to each well and the color development reaction allowed to proceed 5-10 minutes at room temperature with shaking. The reaction was stopped by the addition of 2N sulfuric acid (100 μl) and the absorbance values read at 450 nm in a microplate reader (Molecular Devices). Analysis of Results: • 1. The percentage of the absorbance value in wells containing the test compound relative to control wells (no test agent) was determined. • 2. IC50 values of selected compounds were determined from inhibition curves, after subtracting background values (no substrate).

HCT-116 = assay: Cytotoxicity assay (SRB), HCT-116; format: cell-based; conditions: HCT116 cells, SRB, read-out: In Vitro Cellular Activity IC50 HCT116
Procedure, shortened: as §1

cyclin D1/cdk 4 enzyme = molecular target: T2, cyclin D1/cdk 4 enzyme (Homo sapiens, UniProt P11802); assay: CDK4 ELISA kinase assay (phospho-Rb ser 795 detection); format: biochemical
T2 construct: made in house; host or cells: Sf9 insect cells, recombinant baculovirus
T2 sequence (P11802 whole entry, species assumed): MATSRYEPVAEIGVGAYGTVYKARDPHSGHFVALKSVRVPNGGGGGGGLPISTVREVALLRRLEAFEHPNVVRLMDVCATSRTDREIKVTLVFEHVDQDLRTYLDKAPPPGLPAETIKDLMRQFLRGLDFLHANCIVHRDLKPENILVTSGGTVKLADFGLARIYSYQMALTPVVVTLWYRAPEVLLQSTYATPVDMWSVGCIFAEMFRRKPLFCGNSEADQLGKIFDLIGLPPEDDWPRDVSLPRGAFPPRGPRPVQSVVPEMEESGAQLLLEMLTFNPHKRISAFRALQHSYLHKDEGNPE
T2 sequence (P24385 whole entry partner, species assumed): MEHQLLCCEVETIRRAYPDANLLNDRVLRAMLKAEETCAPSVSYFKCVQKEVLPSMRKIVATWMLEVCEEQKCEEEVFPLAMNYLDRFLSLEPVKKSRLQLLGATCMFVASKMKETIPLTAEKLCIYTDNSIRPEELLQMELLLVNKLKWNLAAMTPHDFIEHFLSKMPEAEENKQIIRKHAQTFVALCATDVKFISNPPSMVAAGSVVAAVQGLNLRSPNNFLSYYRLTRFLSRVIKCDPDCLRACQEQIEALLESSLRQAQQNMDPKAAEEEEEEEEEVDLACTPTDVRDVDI
Procedure, shortened: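 Inhibition was derived from A450 relative to control wells lacking compound, following an anti-phospho-Rb Ser795 sandwich of HRP detection. The reactions combined coated GST-Rb fragment, 200 μM ATP and baculovirus-expressed cyclin/CDK enzymes, incubated for 1 h at 30° C.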

cyclin E/CDK2 enzyme = molecular target: T3, cyclin E/CDK2 enzyme (Homo sapiens, UniProt P24941); assay: CDK2 ELISA kinase assay (phospho-Rb ser 795 detection); format: biochemical; conditions: In Vitro Enzyme Assay, cyclin E/CDK2, read-out: CDK2 IC50
T3 construct: made in house; host or cells: Sf9 insect cells, recombinant baculovirus
Method: as §2, §3

[1] = Homo sapiens, MCF7, 72 h, 3 days
[2] = Homo sapiens, BT-474, 144 h, BT474 cells, 6 days, SRB; read-out: In Vitro Cellular Activity IC50 BT474
[3] = Homo sapiens, LoVo, 72 h, 3 days
[4] = In Vitro Enzyme Assay, cyclin B/CDK1, read-out: CDK1 IC50
[5] = Homo sapiens, HCT-116, 72 h, 3 days
[6] = In Vitro Enzyme Assay, cyclin D1/cdk 4, read-out: CDK4 IC50
[7] = Homo sapiens, MCF7, 72 h, three days
[8] = Homo sapiens, BT-474, 144 h, BT474 cells, SRB, 6 days; read-out: In Vitro Cellular Activity IC50 BT474
[9] = Homo sapiens, LoVo, 72 h, three days
[10] = In Vitro Enzyme Assays, read-out: CDK1 IC50
[11] = Homo sapiens, HCT-116, 72 h, three days
[12] = In Vitro Enzyme Assays, 200 μM ATP, read-out: CDK4 IC50

| Structure (SMILES) | IC50 (cyclin D1/cdk 4 enzyme; [6]) [µM] | IC50 (cyclin B/CDK1 enzyme; [10]) [µM] | IC50 (cyclin D1/cdk 4 enzyme; [12]) [µM] | IC50 (MCF-7; [1]) [µM] | IC50 (BT474; [2]) [µM] | IC50 (LoVo; [3]) [µM] | IC50 (HCT-116; [5]) [µM] | IC50 (MCF-7; [7]) [µM] | IC50 (BT474; [8]) [µM] | IC50 (LoVo; [9]) [µM] | IC50 (HCT-116; [11]) [µM] | further results |
| --- | --- | --- | --- | --- | --- | --- | --- | --- | --- | --- | --- | --- |
| CN1CCN(c2ccc(NC=C3C(=O)NC(=O)c4ccc(-c5ccco5)cc43)cc2)CC1 [Example 830, 6-Furan-2-yl-4-{[4-(4-methyl-piperazin-1-yl)-phenylamino]-methylene}-4H-isoquinoline-1,3-dione] | 0.17 |  |  | 3.3 | 1.2 | 3.6 | 2.7 |  |  |  |  | IC50 (cyclin B/CDK1 enzyme; [4]): > 50 µM |
| O=C1NC(=O)c2ccc(I)cc2/C1=C/NCc1ccc(-c2ccco2)c(O)c1 [Example 505, 4-[(4-Furan-2-yl-3-hydroxy-benzylamino)-methylene]-6-iodo-4H-isoquinoline-1,3-dione] |  |  |  | 0.7 | 0.26 | 0.27 | 0.38 |  |  |  |  | IC50 (cyclin E/CDK2 enzyme): 8.4 µM |
| O=C1NC(=O)c2ccc(-c3ccc(Cl)cc3)cc2/C1=C/Nc1ccc(CN2CCCCC2)cc1 [Example 111, (4Z)-6-(4-Chlorophenyl)-4-({[4-(piperidin-1-ylmethyl)phenyl]amino}methylene)isoquinoline-1,3(2H,4H)-dione] |  | > 50 | 19.4 |  |  |  |  | 2.1 | 2.8 | 1.2 | 1.2 |  |
| O=C1NC(=O)c2ccc(I)cc2/C1=C/NCc1ccn(-c2ccccc2)c(=O)c1 [Example 518, (4Z)-6-Iodo-4-({[(2-oxo-1-phenyl-1,2-dihydropyridin-4-yl)methyl]amino}methylene)isoquinoline-1,3(2H,4H)-dione] | 0.11 |  |  |  |  |  |  |  |  |  |  | IC50 (MCF-7; 3 days): 0.64 µM; IC50 (BT474; BT474 cells, 6 days, SRB; read-out: In Vitro Cellular Activity IC50 BT474): 0.08 µM; IC50 (LoVo; 3 days): 0.15 µM; IC50 (cyclin B/CDK1 enzyme; [4]): > 50 µM; IC50 (HCT-116; 3 days): 0.23 µM |
| O=C1NC(=O)c2ccc(I)cc2/C1=C/NCc1ccc(-c2cccnc2)c(O)c1 [Example 515, 4-[(3-Hydroxy-4-pyridin-3-yl-benzylamino)-methylene]-6-iodo-4H-isoquinoline-1,3-dione] |  |  |  | 1.1 | 0.34 | 0.38 | 0.44 |  |  |  |  | IC50 (cyclin E/CDK2 enzyme): 3.6 µM |
| O=C1NC(=O)c2ccc(N3CCCCC3)cc2/C1=C/Nc1ccc(CN2CCCCC2)cc1 [Example 118, (4Z)-6-Piperidin-1-yl-4-({[4-(piperidin-1-ylmethyl)phenyl]amino}methylene)isoquinoline-1,3(2H,4H)-dione] |  | > 50 |  |  |  |  |  | 4.4 | 4 | 3.2 | 2.7 |  |
| O=C1NC(=O)c2ccc(I)cc2/C1=C/NCc1cc(O)c(-c2ccoc2)cc1F [Example 520, 4-[(2-Fluoro-4-furan-3-yl-5-hydroxy-benzylamino)-methylene]-6-iodo-4H-isoquinoline-1,3-dione] | 0.01 |  |  | 2.2 | 0.66 | 0.9 | 1.2 |  |  |  |  | IC50 (cyclin E/CDK2 enzyme): 12.1 µM |
| COc1ccc(CNC=C2C(=O)NC(=O)c3ccc(-c4ccc5ccccc5c4)cc32)cc1O [Example 834, 4-[(3-Hydroxy-4-methoxy-benzylamino)-methylene]-6-naphthalen-2-yl-4H-isoquinoline-1,3-dione] | 0.29 |  |  | 18.6 | 13.2 | 23.1 | 29.6 |  |  |  |  | IC50 (cyclin B/CDK1 enzyme; [4]): > 50 µM |
| O=C1NC(=O)c2ccc([N+](=O)[O-])cc2/C1=C/Nc1ccc(CN2CCCCC2)cc1 [compound 42] |  | > 50 |  |  |  |  |  | 7.6 | 4 | 5.9 | 3 |  |
| CN1CC2CC1CN2c1ccc(NC=C2C(=O)NC(=O)c3ccc(I)cc32)cc1 (centres unmarked) [Example 221, 6-Iodo-4-{[4-(5-methyl-2,5-diaza-bicyclo[2.2.1]hept-2-yl)-phenylamino]-methylene}-4H-isoquinoline-1,3-dione] |  | > 50 | 0.32 |  |  |  |  | 2.6 | 3.2 | 3.2 | 1.9 |  |

Continued, in another order:

| IC50 (cyclin D1/cdk 4 enzyme; [6]) [µM] | IC50 (cyclin B/CDK1 enzyme; [10]) [µM] | IC50 (cyclin D1/cdk 4 enzyme; [12]) [µM] | Structure (SMILES) | IC50 (MCF-7; [1]) [µM] | IC50 (BT474; [2]) [µM] | IC50 (LoVo; [3]) [µM] | IC50 (HCT-116; [5]) [µM] | IC50 (MCF-7; [7]) [µM] | IC50 (BT474; [8]) [µM] | IC50 (LoVo; [9]) [µM] | IC50 (HCT-116; [11]) [µM] | further results |
| --- | --- | --- | --- | --- | --- | --- | --- | --- | --- | --- | --- | --- |
| 2.12 |  |  | Cc1cccc(-c2ccc3c(c2)C(=CNCc2ccc(O)c(O)c2)C(=O)NC3=O)c1 [Example 782, 4-[(3,4-Dihydroxy-benzylamino)-methylene]-6-m-tolyl-4H-isoquinoline-1,3-dione] | 14.3 | 20.3 | 15.8 | 15.8 |  |  |  |  | IC50 (cyclin B/CDK1 enzyme; [4]): > 50 µM |
|  | > 50 | < 0.005 | O=C1NC(=O)c2ccc(-c3ccoc3)cc2/C1=C/NCc1ccc(OC(F)F)c(O)c1 [Example 199, (4Z)-4-({[4-(Difluoromethoxy)-3-hydroxybenzyl]amino}methylene)-6-(3-furyl)isoquinoline-1,3(2H,4H)-dione] |  |  |  |  | 1.9 | 1.3 | 4.1 | 6.4 |  |
|  | > 50 | 0.04 | O=C1NC(=O)c2ccc(Br)cc2/C1=C/NCc1ccc(OCCO)c(O)c1 [Example 139, (4Z)-6-Bromo-4-({[3-hydroxy-4-(2-hydroxyethoxy)benzyl]amino}methylene)isoquinoline-1,3(2H,4H)-dione] |  |  |  |  | > 50 | 15 | 26 | > 50 |  |
| 0.11 |  |  | COc1ccc(CNC=C2C(=O)NC(=O)c3ccc(C=CCN4CC(=O)NC4=O)cc32)cc1O [Example 826, 6-[3-(2,4-Dioxo-imidazolidin-1-yl)-propenyl]-4-[(3-hydroxy-4-methoxy-benzylamino)-methylene]-4H-isoquinoline-1,3-dione] | > 50 | > 50 | > 50 | 36.9 |  |  |  |  | IC50 (cyclin E/CDK2 enzyme): 12.9 µM |
|  | > 50 | 0.33 | C=CCOc1ccc(CN/C=C2\C(=O)NC(=O)c3ccc(Br)cc32)cc1O [Example 149, (4Z)-4-({[4-(Allyloxy)-3-hydroxybenzyl]amino}methylene)-6-bromoisoquinoline-1,3(2H,4H)-dione] |  |  |  |  | > 50 | 12 | 27 | 18 |  |
